Data reported in paper PMC10247784, “Physiological activation of human and mouse bitter taste receptors by bile acids” (Communications Biology, 2023).

Molecular target: T1, mouse Tas2r105 (Mus musculus, UniProt Q9JKT4)
T1 construct: expressed in transfected cells; host or cells: HEK293T-Gα16gust44
T1 sequence (Q9JKT4 1-300): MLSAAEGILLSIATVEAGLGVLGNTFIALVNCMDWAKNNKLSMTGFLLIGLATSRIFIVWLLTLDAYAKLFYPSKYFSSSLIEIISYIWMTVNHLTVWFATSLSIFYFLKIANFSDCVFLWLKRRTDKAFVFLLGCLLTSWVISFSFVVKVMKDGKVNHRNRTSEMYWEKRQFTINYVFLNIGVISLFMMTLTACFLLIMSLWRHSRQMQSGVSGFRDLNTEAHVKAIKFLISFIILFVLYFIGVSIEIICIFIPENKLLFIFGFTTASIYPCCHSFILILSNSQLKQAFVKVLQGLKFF
Test: Calcium imaging assay (FLIPR), HEK293T-Gα16gust44 cells transfected with mouse Tas2r105
Format: cell-based
Experimental: This set of bile acids was chosen because of their commercial availability in high purities, their diversity within the class of bile acids and their previous detection and quantitation in human blood. Stock solutions were prepared in DMSO.
As basal growth medium for the HEK293T-Gα16gust44 cell line[17],[59] served Dulbecco’s modified eagle medium (DMEM) (Thermo Fisher Scientific, Darmstadt, Germany) supplemented with 10 % fetal bovine serum (Sigma-Aldrich, Steinheim, Germany), 2 mM L-glutamine (Sigma-Aldrich, Steinheim, Germany), 100 units/ml penicillin (Sigma Aldrich, Steinheim, Germany) and 100 µg/ml streptomycin (Sigma Aldrich, Steinheim, Germany). Growth conditions were 37 °C, 5 % CO2 and saturated air-humidity[60].
HEK293T-Gα16gust44 cells were seeded on poly-D-lysine (10 µg/ml) coated 96-well plates to reach a confluence of 40-60 % the next day. For transient transfection 150 ng of plasmid DNA containing the receptor of interest and 0.3 µl lipofectamine 2000 (Thermo Fisher Scientific, Darmstadt, Germany) per well were used and transfection took place according to the manual of lipofectamine 2000. […] The empty vector DNA (mock) was transfected as negative control[14],[41].
Cells were loaded using the calcium-sensitive fluorescent dye Fluo-4-AM (Abcam, Cambridge, Great Britain) in the presence of 2.5 mM probenecid (Sigma-Aldrich, Steinheim, Germany) the day after transfection[13],[41]. 1 h after loading, cells were washed with C1 buffer using a BioTek Cell Washer, incubated in the dark for half an hour and washed again. For automated agonist application and measurement of fluorescence changes, a FLIPR^TETRA device (Molecular Devices, San José, United States) was used. Viability of cells was tested by application of 100 nM Somatostatin 14 (Bachem, Bubendorf, Switzerland)[42].
Measured data were negative control corrected by subtracting the signal of the mock-transfected cells and exported to Microsoft Excel using the FLIPR software ScreenWorks 4.2. In Microsoft Excel software, standardization of maximum fluorescence intensities to the basal fluorescence and normalization to the buffer-only control was done to calculate the relative fluorescence changes (ΔF/F).
Initial screening experiments performed in duplicate wells were confirmed by at least one replication and representative traces were selected for display. All dose-response relationships were determined by three independent experiments (biological replicates) performed in duplicates (technical replicates). Threshold concentrations, defined as lowest substance concentrations leading to statistically significant elevated fluorescence changes in receptor-transfected cells compared with empty vector-transfected cells, were determined using SigmaPlot with Student’s t-test to evaluate statistical significance (p < 0.01).

## C[C@H](CCC(=O)O)[C@H]1CC[C@H]2[C@@H]3[C@H](O)C[C@@H]4C[C@H](O)CC[C@]4(C)[C@H]3C[C@H](O)[C@]12C [Cholic Acid, cholic acid]
Time 0 s
  RLU: 0 RLU
Time 2 s
  RLU: 1.777 RLU
Time 4 s
  RLU: 7.834 RLU
Time 6 s
  RLU: 2.675 RLU
Time 8 s
  RLU: 9.829 RLU
Time 12 s
  RLU: -3.285 RLU
Time 14 s
  RLU: -7.0734 RLU
Time 16 s
  RLU: 15 RLU
Time 18 s
  RLU: 44.4226 RLU
Time 18.781 s
  RLU: 21.6772 RLU
Time 20.781 s
  RLU: 9.429 RLU
Time 22.781 s
  RLU: 39.5966 RLU
Time 24.781 s
  RLU: 10.8272 RLU
Time 26.781 s
  RLU: 50.2337 RLU
Time 28.781 s
  RLU: 59.2009 RLU
Time 30.781 s
  RLU: 49.6279 RLU
Time 32.781 s
  RLU: 86.2126 RLU
Time 34.781 s
  RLU: 65.8416 RLU
Time 36.781 s
  RLU: 100.025 RLU
Time 38.781 s
  RLU: 89.1237 RLU
Time 40.781 s
  RLU: 115.541 RLU
Time 42.781 s
  RLU: 131.095 RLU
Time 44.781 s
  RLU: 139.548 RLU
Time 46.781 s
  RLU: 164.231 RLU
Time 48.781 s
  RLU: 193.51 RLU
Time 50.781 s
  RLU: 193.303 RLU
Time 52.781 s
  RLU: 217.91 RLU
Time 54.781 s
  RLU: 257.63 RLU
Time 56.781 s
  RLU: 273.677 RLU
Time 58.781 s
  RLU: 284.724 RLU
Time 60.781 s
  RLU: 322.244 RLU
Time 62.781 s
  RLU: 314.427 RLU
Time 64.781 s
  RLU: 342.91 RLU
Time 66.781 s
  RLU: 375.793 RLU
Time 68.781 s
  RLU: 398.01 RLU
Time 70.781 s
  RLU: 424.457 RLU
Time 72.781 s
  RLU: 449.971 RLU
Time 74.781 s
  RLU: 470.44 RLU
Time 76.781 s
  RLU: 487.87 RLU
Time 78.781 s
  RLU: 480.774 RLU
Time 80.781 s
  RLU: 513.812 RLU
Time 82.781 s
  RLU: 513.576 RLU
Time 84.781 s
  RLU: 531.991 RLU
Time 86.781 s
  RLU: 549.947 RLU
Time 88.781 s
  RLU: 553.294 RLU
Time 90.781 s
  RLU: 575.612 RLU
Time 92.781 s
  RLU: 557.955 RLU
Time 94.781 s
  RLU: 575.485 RLU
Time 96.781 s
  RLU: 548.118 RLU
Time 98.781 s
  RLU: 585.897 RLU
Time 100.781 s
  RLU: 576.152 RLU
Time 102.781 s
  RLU: 586.681 RLU
Time 104.781 s
  RLU: 569.701 RLU
Time 106.781 s
  RLU: 551.409 RLU
Time 108.781 s
  RLU: 564.279 RLU
Time 110.781 s
  RLU: 542.028 RLU
Time 112.781 s
  RLU: 544.652 RLU
Time 114.781 s
  RLU: 548.979 RLU
Time 116.781 s
  RLU: 550.607 RLU
Time 118.781 s
  RLU: 555.391 RLU
Time 120.781 s
  RLU: 575.811 RLU
Time 122.781 s
  RLU: 538.707 RLU
Time 124.781 s
  RLU: 581.753 RLU
Time 126.781 s
  RLU: 520.313 RLU
Time 128.781 s
  RLU: 519.484 RLU
Time 130.781 s
  RLU: 535.938 RLU
Time 132.781 s
  RLU: 507.19 RLU
Time 134.781 s
  RLU: 533.269 RLU
Time 136.781 s
  RLU: 500.116 RLU
Time 137.578 s
  RLU: 523.788 RLU
Time 143.578 s
  RLU: 484.404 RLU
Time 149.578 s
  RLU: 476.256 RLU
Time 155.578 s
  RLU: 501.067 RLU
Time 161.578 s
  RLU: 504.009 RLU
Time 167.578 s
  RLU: 489.395 RLU
Time 173.578 s
  RLU: 450.925 RLU
Time 179.578 s
  RLU: 464.442 RLU
Time 185.578 s
  RLU: 417.045 RLU
Time 191.578 s
  RLU: 421.394 RLU
Time 197.578 s
  RLU: 391.24 RLU
Time 203.578 s
  RLU: 344.694 RLU
Time 209.578 s
  RLU: 358.293 RLU
Time 215.578 s
  RLU: 343.137 RLU
Time 221.578 s
  RLU: 329.589 RLU
Time 227.578 s
  RLU: 339.83 RLU
Time 233.578 s
  RLU: 325.692 RLU
Time 239.578 s
  RLU: 315.743 RLU
Time 245.578 s
  RLU: 313.71 RLU
Time 293.578 s
  RLU: 197.324 RLU
Time 299.578 s
  RLU: 152.865 RLU
Time 305.578 s
  RLU: 156.643 RLU
Time 311.578 s
  RLU: 134.046 RLU
Time 317.578 s
  RLU: 124.601 RLU
Time 323.578 s
  RLU: 131.88 RLU
Time 329.578 s
  RLU: 133.734 RLU
Time 335.578 s
  RLU: 174.038 RLU
Time 341.578 s
  RLU: 165.309 RLU
Time 347.578 s
  RLU: 173.556 RLU
Time 353.578 s
  RLU: 191.675 RLU
Time 359.578 s
  RLU: 226.638 RLU
P < 0.01 vs empty vector
  Activation threshold concentration Tas2r105: 300 µM
